This is an account of results in patent publication US20220275403A1, “Methods And Compositions For Enhancing AAV-Mediated Homologous Recombination Using Ribonucleotide Reductase Inhibitors” (The Board of Trustees of the Leland Stanford Junior …, priority 2019, published 2022).

One data set relates to P Ser139 γH2AX. The data set can be described thus: P Ser139 γH2AX DNA damage response in mouse liver (IHC, Western blot). (In general: In western blotting, separated proteins are transferred to a membrane and probed.)
The test system of the next data set is mouse liver. The data set can be described thus: qPCR of liver DNA and mRNA after Alb-P2A-hF9 vector injection. On the technique in general: Quantitative PCR measures a nucleic acid by following its amplification.
Data set [1] relates to genomic albumin (Alb) locus, mouse liver. Briefly: In vivo gene targeting with rAAV8 Alb-P2A-hF9 vector, serum hF9 by ELISA. The following applies: for serum hF9 protein levels: vs vehicle; for serum hF9 levels: 2 months after AAV injection; for hF9 expression (plasma/serum hF9 levels): mice, drug ip three sequential days, rAAV8 Alb/F9 on first day, vs controls. The procedure:
FIG. 5 Depicts results from in vivo delivery of AAV-based HR in mice. A schematic depicts the injection schedule. rAAV was used to deliver a donor sequence encoding human coagulation factor IX (hF9) into the genomic Albumin (Alb) locus. Plasma hF9 expression in the mouse liver was measured as an assay to detect integration and expression of the integrated donor sequence. […] Experimental plan and time schedule: each drug was given three sequential days by ip injection and AAV was injected at first day with 1e11 vector genome (vg)/g body weight. Serum samples were collected at each time point and hF9 levels were measured by ELISA. Body weight of each mouse were measured to monitor the toxic effect of each drug.
The efficacy of RNR inhibitors in vivo was tested using an AAV8 vector that incorporates a Alb/F9 targeting sequence. The “Alb/F9” targeting vector was an AAV that included a donor DNA having a nucleotide sequence of interest flanked by homology arms that facilitated integration of the sequence of interest into the genomic albumin (Alb) locus. The nucleotide sequence of interest in this case was a 2A peptide sequence 5′ of a sequence encoding human coagulation factor IX (hF9). Thus, once integrated into the genomic locus, the 2A peptide sequence was present between the endogenous albumin coding sequence and the introduced/integrated hF9 coding sequence such that expression of hF9 mRNA was under the control of the albumin promoter but translation of the transcript led to two separate proteins (albumin and hF9). […] Thus, the lack of efficacy observed based on hF9 liver expression (see FIG. 5) is likely due to low/substantially no HU in the liver (FIG. 6). Given the in vitro HU results and the in vitro and in vivo fludarabine results—in addition to the gemcitabine results of FIG. 7, it is likely and expected that AAV-based HR is enhanced in vivo by HU in organs/tissues other than the liver (e.g., kidney, spleen, heart, lung, testes, brain, etc.).
B6 mice were received tail vain injections of rAAV8 packaging each vector at the designated dose and were bled at indicated time points. Body weight of mice were measured using Scout pro portable scale (Ohaus) at indicated time points. Serum samples were obtained by centrifuge at 10,000 rpm for 10 minutes and used for ELISA assay of hF9. Hydroxyurea or fludarabine was resuspended in PBS and were injected intraperitoneally with indicated dose/regimen. For BrdU labeling of proliferating mice hepatocytes, BrdU was resuspended in PBS and were intraperitoneally injected for indicated time periods at 200 mg/kg per day for 3 days or 7 days. Diethylnitrosamine solution was prepared using saline and was also intraperitoneally injected for 3 days at 10 or 30 mg/kg. At the end of experiments, mice were anesthetized with isoflurane and perfused transcardially with PBS and then liver tissues were quickly harvested and cut into several pieces. The tissues for mRNA extractions were immediately submerged in RNAlater solution (Sigma) and stored at 4° C. until use. For gDNA or protein extraction, tissues were snap-frozen in liquid nitrogen and stored at −80° C. until use.
(§1) Mice serum samples were used to quantify hF9 protein expression levels. ELISA for hF9 was performed as previously described with the following antibodies: mouse anti-hF9 IgG primary antibody at 1:1,000 (Sigma Cat#F2645), and polyclonal goat anti-hF9 peroxidase-conjugated IgG secondary antibody at 1:4,000 (Enzyme Research Cat#GAFIX-APHRP).

A short description of data set [2]: Body weight of treated mice. The following applies: for body weight: mice, drug ip three sequential days plus rAAV8 Alb/F9, relative to controls.
For the next data set, the system named is hepatocytes. The data set can be described thus: BrdU incorporation in mouse liver (hepatocyte proliferation). The format is in vivo. For orientation: Uptake of a labelled nucleoside into DNA is a usual measure of proliferation.
The test system of another data set is hepatocytes of mice. The data set can be described thus: RNAscope in situ hybridization of hF9 mRNA in liver sections. In kind it is in vivo. The following applies: vs PBS treated mouse.
Data set [3] relates to Albumin gene locus, mouse hepatocytes. The data set can be described thus: CRISPR/Cas9-mediated gene editing in vivo, SaCas9-sgRNA8 plus rAAV8-Alb-P2A-GFP, GFP staining of liver. The following applies: vs PBS, Alb-P2A-GFP 6.0×10^12 or 3.0×10^13 vg/kg, 2 weeks after AAV injection.
Another data set has as its system murine ApoE locus. The data set can be described thus: In vivo gene targeting with rAAV8-ApoE-P2A-hF9 vector, serum hF9. Details: species or system mouse. The following applies: vs PBS. The protocol:
Serum was collected at various times across a nearly 60-day time course and hF9 protein levels were determined. Error bars represent s.e.; n=4
Also examined was whether fludarabine-mediated enhancement of gene targeting was Albumin specific—this was done by designing a vector targeting an alternative genomic locus, ApoE. ApoE is highly and specifically expressed in hepatocytes, similar to Albumin. When 1.0×10^11 vg/mouse of this vector (ApoE-P2A-hF9) was injected with fludarabine treatment, a significant increase in hF9 expression compared to PBS-injected mice was observed (FIG. 12). The fold-increase (3.6-fold at day 54) was similar to findings targeting the Albumin locus.
as §1

The next data set relates to Huh7 cells. The data set can be described thus: AAV-HR efficiency, AAV-DJ GAPDH/GFP targeting vector, GFP positive cells by FACS. The format is cell-based, human. The following applies: for HR efficiency (GFP positive population by FACS analysis) / AAV-HR efficiency (GFP positive fraction): Huh7; for HR efficiency (GFP positive population by FACS analysis): AAV-DJ GAPDH targeting vector; for AAV-HR efficiency (GFP positive fraction): FIG. 7, drug pretreatment 16 hours, washed out, FACS 14 days after infection.

“Also recorded” adds a separate entry of the source.

As to `CCN(CC)N=O` [DEN, diethylnitrosamine], the “γH2AX staining of liver sections (IHC)” value in the data set with P Ser139 γH2AX (DEN-treated mice, positive control) is “intense nuclear staining of γH2AX”. Also, the “endogenous albumin mRNA expression” value with mouse liver (DEN 10 or 30 mg/kg, liver) is listed as “nearly unchanged”. For the same molecule, the “total hF9 mRNA expression” value in the data set on mouse liver (DEN high dose (30 mg/kg), liver, vs vehicle) amounted to 3.9 fold; with mouse liver (DEN low dose (10 mg/kg), liver, vs vehicle), 2 fold. For the same molecule, in the data set with mouse liver (DEN, both dose groups, liver, vs vehicle), the “on-target HR derived fusion Alb-P2A-hF9 mRNA” value was “about 2 fold”. Besides, the “serum hF9 protein levels” value in [1] (DEN 10 mg/kg, not statistically significant) is ~1.5 fold; in data set [1] (DEN 30 mg/kg, three weeks post rAAV injection), “about 3.6 fold”. Also, in data set [2] (DEN 10 or 30 mg/kg i.p. once per day for three days, vs vehicle, dose-dependent), the body weight gains entry is given as “decreased body weight gains”.
With `Nc1nc(F)nc2c1ncn2[C@@H]1O[C@H](CO)[C@@H](O)[C@@H]1O` [Fludarabine, (2R,3S,4S,5R)-2-(6-amino-2-fluoropurin-9-yl)-5-(hydroxymethyl)oxolane-3,4-diol], in the data set with P Ser139 γH2AX (acute phase of fludarabine treatment), the “γH2AX in liver tissue lysates (Western blotting)” value is given as “strong detection of γH2AX”. Moreover, the “γH2AX foci in liver (IHC)” value is on record as “significantly reduced” in the data set on P Ser139 γH2AX (three-day washout after fludarabine, vs immediately proximal to treatment) and “widespread nuclear localized γH2AX foci” in the data set on P Ser139 γH2AX (time proximate to fludarabine treatment). Besides, in the data set with mouse liver (liver mRNA, fludarabine treatment), the endogenous albumin expression result is reported as “not changed”. Besides, the “on-target integrated Alb-P2A-hF9 fusion mRNA expression” value with mouse liver (liver, vs PBS, normalized to Actb) stood at 5.1 fold. For the same molecule, the “total hF9 mRNA” value in the data set on mouse liver (liver, vs controls, vector-internal primer set) was found to be 4.4 fold. In the data set with hepatocytes (BrdU for three days in washout phase after fludarabine, vs acute phase), the “BrdU incorporation in liver” value is reported as “significantly greater”. In the data set with hepatocytes (BrdU given during fludarabine 125 mg/kg three times per day for three days (acute phase)), the “BrdU labeled nuclei in liver sections” value is “nearly absent”. Also, the “frequency of hF9 mRNA positive cells” value in the data set with hepatocytes of mice is “increased the number of hF9 positive hepatocytes”; in the data set on hepatocytes of mice (listed as fludarabine) it was “clearly more frequent”. For the same molecule, the “serum hF9 levels” value is listed as 6.4 fold in data set [1] (Flu 125 mg/kg i.p. 3 times per day for five days, vs PBS) and “about 2 fold” in [1] (single administration (1 day) of fludarabine). In addition, in [1] (fludarabine 125 mg/kg i.p. three times per day on days 28-30 after rAAV, serum day 54), the “hF9 expression / gene targeting efficiency with delayed dose” value is “little to no effect; also recorded: failed to increase the efficiency of gene targeting”. For the same molecule, the “hF9 expression (plasma/serum hF9 levels)” value in data set [1] is “increased hF9 expression”; in data set [1] (listed as fludarabine), “significantly and consistently increased serum hF9 levels”. Further, the entries for the “number of GFP positive hepatocytes” value in data set [3] and in data set [3] (listed as fludarabine) were “increased the efficiency of CRISPR/Cas9-mediated gene editing” and “increase of the number of GFP positive hepatocytes”, respectively. Moreover, the “fold-increase in hF9 expression” value with murine ApoE locus (ApoE-P2A-hF9 1.0×10^11 vg/mouse, day 54) was determined as 3.6 fold. The “efficiency of gene targeting at the ApoE locus (serum hF9)” value in the data set with murine ApoE locus (nearly 60-day time course) is “increased the efficiency of gene targeting at the ApoE locus”. In the data set with Huh7 cells (FIG. 4, Hun7 cells), the “AAV-HR efficiency in cultured cells” value was “significantly enhanced AAV-HR efficiency”. Further, the “increase in HR efficiency” value in the data set on Huh7 cells (FIG. 4, vs no RNR inhibitor) was determined as 3.5 fold. Further, the “HR efficiency (GFP positive population by FACS analysis)” value with Huh7 cells is reported as “reproducibly increased HR efficiency”. In addition, the values for the body weight result in data set [2] and in data set [2] (listed as fludarabine) were “without any body weight change” and “without any body weight loss”, respectively.
`Nc1ccn([C@@H]2O[C@H](CO)[C@@H](O)C2(F)F)c(=O)n1` [Gemcitabine]: in the data set with Huh7 cells, the “AAV-HR efficiency (GFP positive fraction)” value is recorded as “enhanced AAV-HR efficiency” and the “HR efficiency (GFP positive population by FACS analysis)” value is listed as “reproducibly increased HR efficiency”.
On to `NC(=O)NO` [Hydroxyurea, hydroxyurea], for which the “hF9 expression (plasma/serum hF9 levels)” value in data set [1] was “did not exhibit enhancement of hF9 expression”.
In the case of `COc1cc([C@@H]2c3cc4c(cc3[C@@H](O[C@@H]3O[C@@H]5CO[C@@H](c6cccs6)O[C@H]5[C@H](O)[C@H]3O)[C@H]3COC(=O)[C@H]23)OCO4)cc(OC)c1O` [Teniposide, teniposide], in the data set on Huh7 cells, the “AAV-HR efficiency (GFP positive fraction)” value is listed as “no effect” and the “HR efficiency (GFP positive population by FACS analysis)” value is listed as “no effect”.
